Measurements taken from ChEMBL document CHEMBL3885861, “Open TG-GATES”.

Species on record: Rattus norvegicus
Assay: Open TG-GATES - Regimen: Single
Assay type: toxicity, organism-based, Sprague-Dawley
Set-up: regimen Single, gender Male, age 6 weeks
Settings: in vivo, po, route gavage; for APTT / Bas / Eos / Fbg / Hb / Ht / Lym / MCH / MCHC / MCV / Mono / Neu / PT / Plat / Ret / WBC: tissue Blood; for KIDNEY_L / KIDNEY_R / KIDNEY_TOTAL: tissue Kidney; for LIVER: tissue Liver; for ALP / ALT / AST / BUN / CRE / Ca / DBIL / GLC / IP / K / LDH / Na / PL / RALB / TBIL / TC / TG / TP / gamma-GTP: tissue Plasma

CN(C)CCCN1c2ccccc2CCc2ccc(Cl)cc21 [CLOMIPRAMINE]
APTT (10 mg/kg, 3 h, dose level Low): 17.9 s | Bas (10 mg/kg, 3 h, dose level Low): 0.4% | Eos (10 mg/kg, 3 h, dose level Low): 1% | Fbg (10 mg/kg, 3 h, dose level Low): 240 mg/dL | Hb (10 mg/kg, 3 h, dose level Low): 14 g/dL | Ht (10 mg/kg, 3 h, dose level Low): 43.3% | Lym (10 mg/kg, 3 h, dose level Low): 81% | MCH (10 mg/kg, 3 h, dose level Low): 20.7 pg | MCHC (10 mg/kg, 3 h, dose level Low): 32.4% | MCV (10 mg/kg, 3 h, dose level Low): 63.9 fL | Mono (10 mg/kg, 3 h, dose level Low): 3.4% | Neu (10 mg/kg, 3 h, dose level Low): 13.8% | PT (10 mg/kg, 3 h, dose level Low): 13.5 s | Plat (10 mg/kg, 3 h, dose level Low): 129 x10_4/uL | Ret (10 mg/kg, 3 h, dose level Low): 7.8% | WBC (10 mg/kg, 3 h, dose level Low): 74.4 x10_2/uL | KIDNEY_L (10 mg/kg, 3 h, dose level Low): 1 g | KIDNEY_R (10 mg/kg, 3 h, dose level Low): 1 g | KIDNEY_TOTAL (10 mg/kg, 3 h, dose level Low): 1.9 g | LIVER (10 mg/kg, 3 h, dose level Low): 10 g | ALP (10 mg/kg, 3 h, dose level Low): 1810.4 IU/L | ALT (10 mg/kg, 3 h, dose level Low): 41.2 IU/L | AST (10 mg/kg, 3 h, dose level Low): 75.8 IU/L | BUN (10 mg/kg, 3 h, dose level Low): 9.8 mg/dL | CRE (10 mg/kg, 3 h, dose level Low): 0.2 mg/dL | Ca (10 mg/kg, 3 h, dose level Low): 10.7 mg/dL | DBIL (10 mg/kg, 3 h, dose level Low): 0.01 mg/dL | GLC (10 mg/kg, 3 h, dose level Low): 189 mg/dL | IP (10 mg/kg, 3 h, dose level Low): 9 mg/dL | K (10 mg/kg, 3 h, dose level Low): 4.3 meq/L | LDH (10 mg/kg, 3 h, dose level Low): 123 IU/L | Na (10 mg/kg, 3 h, dose level Low): 140.6 meq/L | PL (10 mg/kg, 3 h, dose level Low): 148.6 mg/dL | RALB (10 mg/kg, 3 h, dose level Low): 2.5 g/dL | TBIL (10 mg/kg, 3 h, dose level Low): 0.074 mg/dL | TC (10 mg/kg, 3 h, dose level Low): 76.2 mg/dL | TG (10 mg/kg, 3 h, dose level Low): 78 mg/dL | TP (10 mg/kg, 3 h, dose level Low): 5.2 g/dL | gamma-GTP (10 mg/kg, 3 h, dose level Low): 1.2 IU/L | TERMINAL_BW (10 mg/kg, 6 h, dose level Low): 215.1 g | APTT (10 mg/kg, 6 h, dose level Low): 17 s | Bas (10 mg/kg, 6 h, dose level Low): 0% | Eos (10 mg/kg, 6 h, dose level Low): 0.4% | Fbg (10 mg/kg, 6 h, dose level Low): 254.8 mg/dL | Hb (10 mg/kg, 6 h, dose level Low): 14 g/dL | Ht (10 mg/kg, 6 h, dose level Low): 43.7% | Lym (10 mg/kg, 6 h, dose level Low): 79.6% | MCH (10 mg/kg, 6 h, dose level Low): 21 pg | MCHC (10 mg/kg, 6 h, dose level Low): 32.1% | MCV (10 mg/kg, 6 h, dose level Low): 65.5 fL | Mono (10 mg/kg, 6 h, dose level Low): 3% | Neu (10 mg/kg, 6 h, dose level Low): 15.6% | PT (10 mg/kg, 6 h, dose level Low): 13.6 s | Plat (10 mg/kg, 6 h, dose level Low): 119.7 x10_4/uL | Ret (10 mg/kg, 6 h, dose level Low): 7.9% | WBC (10 mg/kg, 6 h, dose level Low): 81.1 x10_2/uL | KIDNEY_L (10 mg/kg, 6 h, dose level Low): 1 g | KIDNEY_R (10 mg/kg, 6 h, dose level Low): 1 g | KIDNEY_TOTAL (10 mg/kg, 6 h, dose level Low): 2 g | LIVER (10 mg/kg, 6 h, dose level Low): 9.3 g | ALP (10 mg/kg, 6 h, dose level Low): 1661 IU/L | ALT (10 mg/kg, 6 h, dose level Low): 39.4 IU/L | AST (10 mg/kg, 6 h, dose level Low): 78.4 IU/L | BUN (10 mg/kg, 6 h, dose level Low): 9.4 mg/dL | CRE (10 mg/kg, 6 h, dose level Low): 0.2 mg/dL | Ca (10 mg/kg, 6 h, dose level Low): 10.8 mg/dL | DBIL (10 mg/kg, 6 h, dose level Low): 0.01 mg/dL | GLC (10 mg/kg, 6 h, dose level Low): 189.8 mg/dL | IP (10 mg/kg, 6 h, dose level Low): 9.4 mg/dL | K (10 mg/kg, 6 h, dose level Low): 4.2 meq/L | LDH (10 mg/kg, 6 h, dose level Low): 93 IU/L | Na (10 mg/kg, 6 h, dose level Low): 140.8 meq/L | PL (10 mg/kg, 6 h, dose level Low): 149 mg/dL | RALB (10 mg/kg, 6 h, dose level Low): 2.5 g/dL | TBIL (10 mg/kg, 6 h, dose level Low): 0.072 mg/dL | TC (10 mg/kg, 6 h, dose level Low): 83.4 mg/dL | TG (10 mg/kg, 6 h, dose level Low): 52.2 mg/dL | TP (10 mg/kg, 6 h, dose level Low): 5.3 g/dL | gamma-GTP (10 mg/kg, 6 h, dose level Low): 1.4 IU/L | TERMINAL_BW (10 mg/kg, 9 h, dose level Low): 213 g | APTT (10 mg/kg, 9 h, dose level Low): 15.9 s | Bas (10 mg/kg, 9 h, dose level Low): 0% | Eos (10 mg/kg, 9 h, dose level Low): 0.6% | Fbg (10 mg/kg, 9 h, dose level Low): 267.6 mg/dL | Hb (10 mg/kg, 9 h, dose level Low): 13.5 g/dL | Ht (10 mg/kg, 9 h, dose level Low): 41.8% | Lym (10 mg/kg, 9 h, dose level Low): 78.8% | MCH (10 mg/kg, 9 h, dose level Low): 20.9 pg | MCHC (10 mg/kg, 9 h, dose level Low): 32.2% | MCV (10 mg/kg, 9 h, dose level Low): 64.8 fL | Mono (10 mg/kg, 9 h, dose level Low): 2.2% | Neu (10 mg/kg, 9 h, dose level Low): 17.4% | PT (10 mg/kg, 9 h, dose level Low): 14.1 s | Plat (10 mg/kg, 9 h, dose level Low): 130.4 x10_4/uL | Ret (10 mg/kg, 9 h, dose level Low): 8.4% | WBC (10 mg/kg, 9 h, dose level Low): 80 x10_2/uL | KIDNEY_L (10 mg/kg, 9 h, dose level Low): 1 g | KIDNEY_R (10 mg/kg, 9 h, dose level Low): 0.9 g | KIDNEY_TOTAL (10 mg/kg, 9 h, dose level Low): 1.9 g | LIVER (10 mg/kg, 9 h, dose level Low): 9 g | ALP (10 mg/kg, 9 h, dose level Low): 1512 IU/L | ALT (10 mg/kg, 9 h, dose level Low): 35.8 IU/L | AST (10 mg/kg, 9 h, dose level Low): 67.8 IU/L | BUN (10 mg/kg, 9 h, dose level Low): 10.4 mg/dL | CRE (10 mg/kg, 9 h, dose level Low): 0.2 mg/dL | Ca (10 mg/kg, 9 h, dose level Low): 10.7 mg/dL | DBIL (10 mg/kg, 9 h, dose level Low): 0.01 mg/dL | GLC (10 mg/kg, 9 h, dose level Low): 187.8 mg/dL | IP (10 mg/kg, 9 h, dose level Low): 10.2 mg/dL | K (10 mg/kg, 9 h, dose level Low): 4 meq/L | LDH (10 mg/kg, 9 h, dose level Low): 84.2 IU/L | Na (10 mg/kg, 9 h, dose level Low): 140.2 meq/L | PL (10 mg/kg, 9 h, dose level Low): 138.2 mg/dL | RALB (10 mg/kg, 9 h, dose level Low): 2.5 g/dL | TBIL (10 mg/kg, 9 h, dose level Low): 0.064 mg/dL | TC (10 mg/kg, 9 h, dose level Low): 75.2 mg/dL | TG (10 mg/kg, 9 h, dose level Low): 74 mg/dL | TP (10 mg/kg, 9 h, dose level Low): 5.3 g/dL | gamma-GTP (10 mg/kg, 9 h, dose level Low): 1.4 IU/L | TERMINAL_BW (10 mg/kg, 24 h, dose level Low): 228.6 g | APTT (10 mg/kg, 24 h, dose level Low): 17.7 s | Bas (10 mg/kg, 24 h, dose level Low): 0% | Eos (10 mg/kg, 24 h, dose level Low): 1% | Fbg (10 mg/kg, 24 h, dose level Low): 249 mg/dL | Hb (10 mg/kg, 24 h, dose level Low): 13.6 g/dL | Ht (10 mg/kg, 24 h, dose level Low): 42.5% | Lym (10 mg/kg, 24 h, dose level Low): 77% | MCH (10 mg/kg, 24 h, dose level Low): 20.8 pg | MCHC (10 mg/kg, 24 h, dose level Low): 32.1% | MCV (10 mg/kg, 24 h, dose level Low): 65 fL | Mono (10 mg/kg, 24 h, dose level Low): 3% | Neu (10 mg/kg, 24 h, dose level Low): 17.6% | PT (10 mg/kg, 24 h, dose level Low): 13.7 s | Plat (10 mg/kg, 24 h, dose level Low): 124 x10_4/uL | Ret (10 mg/kg, 24 h, dose level Low): 7.7% | WBC (10 mg/kg, 24 h, dose level Low): 85.9 x10_2/uL | KIDNEY_L (10 mg/kg, 24 h, dose level Low): 1.1 g | KIDNEY_R (10 mg/kg, 24 h, dose level Low): 1 g | KIDNEY_TOTAL (10 mg/kg, 24 h, dose level Low): 2.1 g | ALP (10 mg/kg, 24 h, dose level Low): 1661.4 IU/L | ALT (10 mg/kg, 24 h, dose level Low): 42.6 IU/L | AST (10 mg/kg, 24 h, dose level Low): 74.4 IU/L | BUN (10 mg/kg, 24 h, dose level Low): 13 mg/dL | CRE (10 mg/kg, 24 h, dose level Low): 0.2 mg/dL | Ca (10 mg/kg, 24 h, dose level Low): 10.8 mg/dL | DBIL (10 mg/kg, 24 h, dose level Low): 0.012 mg/dL | GLC (10 mg/kg, 24 h, dose level Low): 179.8 mg/dL | IP (10 mg/kg, 24 h, dose level Low): 8.1 mg/dL | K (10 mg/kg, 24 h, dose level Low): 4 meq/L | LDH (10 mg/kg, 24 h, dose level Low): 88 IU/L | Na (10 mg/kg, 24 h, dose level Low): 141.8 meq/L | PL (10 mg/kg, 24 h, dose level Low): 144.4 mg/dL | RALB (10 mg/kg, 24 h, dose level Low): 2.6 g/dL | TBIL (10 mg/kg, 24 h, dose level Low): 0.062 mg/dL | TC (10 mg/kg, 24 h, dose level Low): 73.8 mg/dL | TG (10 mg/kg, 24 h, dose level Low): 91.6 mg/dL | TP (10 mg/kg, 24 h, dose level Low): 5.4 g/dL | gamma-GTP (10 mg/kg, 24 h, dose level Low): 1 IU/L | TERMINAL_BW (30 mg/kg, 3 h, dose level Middle): 217.9 g
